The record followed here is patent US20230365554A1, “SUBSTITUTED PYRROLO-PYRIDINONE DERIVATIVES AND THERAPEUTIC USES THEREOF” (The Broad Institute, Inc., priority 2020, published 2023).

The structures appear in SMILES notation. Values joined by “and” are separate entries in the source; they are usually repeats but may differ in a detail not shown here. Equal values may be shown once.

For this experiment, the target named is wild-type Epidermal Growth Factor Receptor (EGFR) (Homo sapiens (Human), UniProt P00533). Briefly: WT-EGFR kinase assay (TR-FRET, 2 mM ATP). It counts as biochemical. The note with it: median or individual measurements, Table 3, read-out: EGFR Wildtyp-2mM ATP IC50 [mol/l] (median). From the text: Inhibitory activity of compounds of the present invention against wild-type Epidermal Growth Factor Receptor (EGFR) was quantified employing the TR-FRET based EGFR assay as described in the following paragraphs.
Chain of wild-type Epidermal Growth Factor Receptor (EGFR) (P00533 669-1210): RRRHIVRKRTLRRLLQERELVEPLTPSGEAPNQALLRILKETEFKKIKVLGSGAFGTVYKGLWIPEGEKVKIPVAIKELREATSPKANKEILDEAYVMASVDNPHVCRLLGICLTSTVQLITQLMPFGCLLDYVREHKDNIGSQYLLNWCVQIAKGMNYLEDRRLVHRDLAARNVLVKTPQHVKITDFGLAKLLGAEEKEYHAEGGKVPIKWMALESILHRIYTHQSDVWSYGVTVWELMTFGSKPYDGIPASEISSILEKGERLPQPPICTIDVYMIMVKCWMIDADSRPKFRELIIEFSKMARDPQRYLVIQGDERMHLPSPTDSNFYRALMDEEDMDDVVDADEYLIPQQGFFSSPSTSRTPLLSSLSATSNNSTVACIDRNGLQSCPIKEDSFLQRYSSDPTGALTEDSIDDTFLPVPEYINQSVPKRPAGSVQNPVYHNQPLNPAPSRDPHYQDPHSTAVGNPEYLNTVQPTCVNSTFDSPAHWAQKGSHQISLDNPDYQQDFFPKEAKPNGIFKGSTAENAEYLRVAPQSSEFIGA
Recombinant fusion protein of N-terminal Glutathion-S-Transferase (GST) and a fragment of human EGFR (amino acids R669 to A1210), expressed in Sf9 insect cells and purified via affinity chromatography using Glutathion Sepharose as described above, was used as kinase. As substrate for the kinase reaction the biotinylated peptide biotin-Ahx-AEEEEYFELVAKKK (C-terminus in amide form) was used which can be purchased e.g. form the company Biosynthan GmbH (Berlin-Buch, Germany).
For the assay 50 nl of a 100 fold concentrated solution of the test compound in DMSO was pipetted into either a black low volume 384 well microtiter plate or a black 1536 well microtiter plate (both Greiner Bio-One, Frickenhausen, Germany), 2 μL of a solution of EGFR in aqueous assay buffer [50 mM Hepes pH 7.0, 10 mM MgCl2, 1 mM dithiothreitol, 0.5 mM EGTA, 0.3 mM activated sodium ortho-vanadate, 0.005% (w/v) bovine serum albumin, 0.005% (v/v) Tween-20] were added and the mixture was incubated for 15 min at 22° C. to allow pre-binding of the test compounds to the enzyme before the start of the kinase reaction. Then the kinase reaction was started by the addition of 3 μL of a solution of adenosine-tri-phosphate (ATP, 3.33 mM=>final conc. in the 5 μL assay volume is 2 mM) and substrate (1.67 μM=>final conc. in the 5 μL assay volume is 1 μM) in assay buffer and the resulting mixture was incubated for a reaction time of 30 min at 22° C. The concentration of EGFR was adjusted depending of the activity of the enzyme lot and was chosen appropriate to have the assay in the linear range, typical concentration was 7.6 pg/μL. The reaction was stopped by the addition of 3 μL of a solution of HTRF detection reagents (83.3 nM streptavidine-XL665 [Cisbio Bioassays, Codolet, France] and 1.67 nM PT66-Tb-Cryptate, a terbium-cryptate labelled anti-phospho-tyrosine antibody from Cisbio Bioassays [instead of the PT66-Tb-cryptate PT66-Eu-Chelate from Perkin Elmer can also be used]) in an aqueous EDTA-solution (133.3 mM EDTA, 0.2% (w/v) bovine serum albumin in 50 mM HEPES pH 7.5).
The resulting mixture was incubated 1 h at 22° C. to allow the binding of the biotinylated phosphorylated peptide to the streptavidine-XL665 and the PT66-Tb-Cryptate. Subsequently the amount of phosphorylated substrate was evaluated by measurement of the resonance energy transfer from the PT66-Tb-Cryptate to the streptavidine-XL665. Therefore, the fluorescence emissions at 620 nm and 665 nm after excitation at 337 nm were measured in a HTRF reader, e.g. a Pherastar (BMG Labtechnologies, Offenburg, Germany) or a Viewlux (Perkin-Elmer). The ratio of the emissions at 665 nm and at […] was taken as the measure for the amount of phosphorylated substrate. The data were normalised (enzyme reaction without inhibitor=0% inhibition, all other assay components but no enzyme=100% inhibition).
(In general: Time-resolved FRET reads energy transfer from a long-lived donor to a nearby acceptor.)
With `CN1CC(CC(F)(F)F)c2[nH]c(-c3ccnc(NC(=O)C(CC(F)F)c4ccc(F)cc4)c3)c(Nc3cscn3)c2C1=O` (single isomer, unassigned) [Example 53, (2R or S)-4,4-difluoro-2-(4-fluorophenyl)-N-{4-[(7R or S)-5-methyl-4-oxo-3-[(1,3-thiazol-4-yl)amino]-7-(2,2,2-trifluoroethyl)-4,5,6,7-tetrahydro-1H-pyrrolo[3,2-c]pyridin-2-yl]pyridin-2-yl}butanamide], the IC50 is greater than 20 µM.
Then `CN1CC(CC(F)(F)F)c2[nH]c(-c3ccnc(NC(=O)C(CC(F)F)c4ccc(F)cc4)c3)c(Nc3cscn3)c2C1=O` (single isomer, unassigned) [Example 54, (2R or S)-4,4-difluoro-2-(4-fluorophenyl)-N-{4-[(7R or S)-5-methyl-4-oxo-3-[(1,3-thiazol-4-yl)amino]-7-(2,2,2-trifluoroethyl)-4,5,6,7-tetrahydro-1H-pyrrolo[3,2-c]pyridin-2-yl]pyridin-2-yl}butanamide], with greater than 20 µM.
Then `CN1CC(CC(F)(F)F)c2[nH]c(-c3ccnc(NC(=O)C(CC(F)F)c4ccc(F)cc4)c3)c(Nc3cscn3)c2C1=O` (single isomer, unassigned) [Example 55, (2R or S)-4,4-difluoro-2-(4-fluorophenyl)-N-{4-[(7R or S)-5-methyl-4-oxo-3-[(1,3-thiazol-4-yl)amino]-7-(2,2,2-trifluoroethyl)-4,5,6,7-tetrahydro-1H-pyrrolo[3,2-c]pyridin-2-yl]pyridin-2-yl}butanamide], with 10.8 µM and 9.47 µM; and `CN1CC(CC(F)(F)F)c2[nH]c(-c3ccnc(NC(=O)C(CC(F)F)c4ccc(F)cc4)c3)c(Nc3cscn3)c2C1=O` (single isomer, unassigned) [Example 56, (2R or S)-4,4-difluoro-2-(4-fluorophenyl)-N-{4-[(7R or S)-5-methyl-4-oxo-3-[(1,3-thiazol-4-yl)amino]-7-(2,2,2-trifluoroethyl)-4,5,6,7-tetrahydro-1H-pyrrolo[3,2-c]pyridin-2-yl]pyridin-2-yl}butanamide], with greater than 20 µM; and `CC1CN(C)C(=O)c2c1[nH]c(-c1ccnc(NC(=O)Cc3ccc(F)cc3)c1)c2Nc1ccccc1` (single isomer, unassigned; (+)) [Example 8, (+)-N-{4-[3-anilino-5,7-dimethyl-4-oxo-4,5,6,7-tetrahydro-1H-pyrrolo[3,2-c]pyridin-2-yl]pyridin-2-yl}-2-(4-fluorophenyl)acetamide], with 3 µM.
Then `O=C1N[C@@H]2CCC[C@@H]2c2[nH]c(-c3ccnc(NC(=O)C(CC(F)F)c4ccc(F)cc4)c3)c(Nc3ccccc3)c21` (single isomer, unassigned; (+)) [Example 22, (+)-(2R or S)—N-{4-[cis-3-anilino-4-oxo-1,4,5,5a,6,7,8,8a-octahydrocyclopenta[b]pyrrolo[2,3-d]pyridin-2-yl]pyridin-2-yl}-4,4-difluoro-2-(4-fluorophenyl)butanamide], with greater than 20 µM; and `O=C1N[C@@H]2CCC[C@@H]2c2[nH]c(-c3ccnc(NC(=O)C(CC(F)F)c4ccc(F)cc4)c3)c(Nc3ccccc3)c21` (single isomer, unassigned; (+)) [Example 25, (+)-(2R or S)—N-{4-[cis-3-anilino-4-oxo-1,4,5,5a,6,7,8,8a-octahydrocyclopenta[b]pyrrolo[2,3-d]pyridin-2-yl]pyridin-2-yl}-4,4-difluoro-2-(4-fluorophenyl)butanamide], with greater than 20 µM.
Consider `CC1CN(C)C(=O)c2c1[nH]c(-c1ccnc(NC(=O)Cc3ccc(F)cc3)c1)c2Nc1ccccc1` (single isomer, unassigned; (-)) [Example 7, (−)-N-{4-[3-anilino-5,7-dimethyl-4-oxo-4,5,6,7-tetrahydro-1H-pyrrolo[3,2-c]pyridin-2-yl]pyridin-2-yl}-2-(4-fluorophenyl)acetamide], for which the IC50 stood at 1.3 µM.
Then `O=C1N[C@@H]2CCC[C@@H]2c2[nH]c(-c3ccnc(NC(=O)C(CC(F)F)c4ccc(F)cc4)c3)c(Nc3ccccc3)c21` (single isomer, unassigned; (-)) [Example 23, (−)-(2R or S)—N-{4-[cis-3-anilino-4-oxo-1,4,5,5a,6,7,8,8a-octahydrocyclopenta[b]pyrrolo[2,3-d]pyridin-2-yl]pyridin-2-yl}-4,4-difluoro-2-(4-fluorophenyl)butanamide], with 13 µM.
Then `O=C1N[C@@H]2CCC[C@@H]2c2[nH]c(-c3ccnc(NC(=O)C(CC(F)F)c4ccc(F)cc4)c3)c(Nc3ccccc3)c21` (single isomer, unassigned; (-)) [Example 24, (−)-(2R or S)—N-{4-[cis-3-anilino-4-oxo-1,4,5,5a,6,7,8,8a-octahydrocyclopenta[b]pyrrolo[2,3-d]pyridin-2-yl]pyridin-2-yl}-4,4-difluoro-2-(4-fluorophenyl)butanamide], with 0.31 µM; and `CCC1CNC(=O)c2c1[nH]c(-c1ccnc(NC(=O)C(CC(F)F)c3ccc(F)cc3)c1)c2Nc1ccccc1` (stereo not shown) [Example 4, N-{4-[3-anilino-7-ethyl-4-oxo-4,5,6,7-tetrahydro-1H-pyrrolo[3,2-c]pyridin-2-yl]pyridin-2-yl}-4,4-difluoro-2-(4-fluorophenyl)butanamide], with 1.2 µM; and `CN1CC(CC(F)(F)F)c2[nH]c(-c3ccnc(NC(=O)C(CC(F)F)c4ccc(F)cc4)c3)c(Nc3ccccc3)c2C1=O` (stereo not shown) [Example 17, N-{4-[3-anilino-5-methyl-4-oxo-7-(2,2,2-trifluoroethyl)-4,5,6,7-tetrahydro-1H-pyrrolo[3,2-c]pyridin-2-yl]pyridin-2-yl}-4,4-difluoro-2-(4-fluorophenyl)butanamide], with > 20 µM and > 5.7 µM and 3.7 µM and 3.2 µM.
Then `Cn1cc(CC2CC2)c2[nH]c(-c3ccnc(NC(=O)Cc4ccc(F)cc4)c3)c(Nc3ccccc3)c2c1=O` [Example 32, N-{4-[3-anilino-7-(cyclopropylmethyl)-5-methyl-4-oxo-4,5-dihydro-1H-pyrrolo[3,2-c]pyridin-2-yl]pyridin-2-yl}-2-(4-fluorophenyl)acetamide], with 0.86 µM.
Regarding `Cc1ccccc1Nc1c(-c2ccnc(NC(=O)Cc3ccc(F)cc3)c2)[nH]c2c(CC(F)(F)F)cn(C)c(=O)c12` [Example 33, 2-(4-fluorophenyl)-N-{4-[5-methyl-3-(2-methylanilino)-4-oxo-7-(2,2,2-trifluoroethyl)-4,5-dihydro-1H-pyrrolo[3,2-c]pyridin-2-yl]pyridin-2-yl}acetamide], the IC50 was 0.007 µM.
Consider `Cn1cc(CC(F)(F)F)c2[nH]c(-c3ccnc(NC(=O)Cc4ccc(F)cc4)c3)c(Nc3ccccc3)c2c1=O` [Example 34, N-{4-[3-anilino-5-methyl-4-oxo-7-(2,2,2-trifluoroethyl)-4,5-dihydro-1H-pyrrolo[3,2-c]pyridin-2-yl]pyridin-2-yl}-2-(4-fluorophenyl)acetamide], for which the IC50 stood at 0.02 µM.
Turning to `Cn1cc(CC(F)F)c2[nH]c(-c3ccnc(NC(=O)Cc4ccc(F)cc4)c3)c(Nc3ccccc3)c2c1=O` [Example 45, N-{4-[3-anilino-7-(2,2-difluoroethyl)-5-methyl-4-oxo-4,5-dihydro-1H-pyrrolo[3,2-c]pyridin-2-yl]pyridin-2-yl}-2-(4-fluorophenyl)acetamide], the IC50 stood at 0.15 µM.
